Measured values published in US20250082624A1, “METHODS OF TREATING COGNITIVE IMPAIRMENT” (NeuroTherapia, Inc., priority 2023, published 2025).
Where “and” joins values, the source holds several entries; their conditions need not be identical. Equal entries are not always repeated. Entries after “also recorded” stand apart in the source; their conditions may differ.

Test system: AD cohort
Assay: Cognitive testing MOCA / MMSE in AD cohort
Format: in vivo, human
Parameters: MOCA / MOCA Mean (StdDev): scale not given here
Settings: 90 mg QD 7 days
Source text: Methods: All study procedures were approved by the IRB, and informed consent was obtained. Three cohorts of volunteers 45-80 years of age with well-controlled comorbidities (NOAD) and one cohort of AD patients diagnosed with cognitive impairment consistent with prodromal AD per International Working Group criteria or mild AD per National Institute on Aging—Alzheimer's Association criteria (n=6 active, 2 placebo per cohort) were enrolled. Participants were admitted to the study site for the duration of the dosing and returned 7-12 days after the last dose for a safety visit. Participants received NTRX-07 (10, 30, or 90 mg) or a placebo in a double-blinded randomization orally once daily for seven days. Subjects were assessed for changes in vital signs, including maneuvers to induce lightheadedness, electrocardiograms, 24-hour electroencephalograms (EEG), and safety laboratory studies. The second cohort returned and received a single repeat dose after a standard high-fat meal. The AD cohort also underwent cognitive testing and had blood samples for biomarkers drawn. Subjects had PK sampling done after the first and final dose of the study drug. An independent safety review committee conducted a blinded safety review of adverse events and plasma levels between each cohort.
Assessments: Subjects were assessed for changes in vital signs, orthostatic blood pressure, Romberg test, nystagmus, timed get up and go, electrocardiograms, electroencephalograms (EEG), and laboratory studies. Subjective questionnaires of drug effects (ARCI-M) were administered. Cohort B returned and received a single repeat dose after a standard high-fat meal. The AD cohort also underwent cognitive testing (MMSE, ADAS-COG, MOCA) and had blood samples for biomarkers drawn.
Exploratory endpoints include cognitive testing and potential plasma biomarkers of inflammation. The small group size (6 on treatment, 2 placebo) precludes statistical analysis, but the goals were to gain insights for future study design. Exploratory endpoints include: • MMSE, MOCA & ADAS-COG • IL-12p70, IL-10, IL-4, IL-5, INFg, IL-6, IL-8, IL-22, TNFa, IL-10, hCRP, Chitinase-3, TREM-2, IL-2, Neurogranin, Total Tau, AB42, AB40, NF-LIGHT, pTau-181

SMILES: CC1(Cc2ccccc2)COc2cc(C(=O)N3CCCCC3)ccc21 (stereo not shown) [NTRX-07, 3-benzyl-3-methyl-2,3-dihydrobenzofuran-6-carboxylic acid-piperidine amide]
- Changes in cognitive scores (MMSE, MOCA): No significant changes in cognitive scores; also recorded: No appreciable changes
- MOCA Mean (StdDev) (Day 8): 19.7 ± 1.8
- MOCA (Day 8, individual subjects): 22 and 21 and 19 and 20 and 17
- MOCA Mean (StdDev) (Day −2 (baseline)): 20.5 ± 2.6
- MOCA (Day −2 (baseline), individual subjects): 22 and 21 and 24 and 18 and 17
- MOCA Mean (StdDev) (EOS Day 14-19): 20.7 ± 3.5
- MOCA (EOS Visit (Day 14-19), individual subjects): 25 and 15 and 20 and 23 and 22 and 19
